Tests used:
[1] = tested on: RAW264.7; experiment: Inhibition of LPS-induced nitric oxide production in mouse RAW264.7 cells at 80 uM after 24 hrs by Griess assay relative to control; format: functional; conditions: RAW264.7, 24 h
[2] = tested on: RAW264.7; experiment: Inhibition of LPS-induced nitric oxide production in mouse RAW264.7 cells after 24 hrs by Griess assay; format: functional, cell-based; conditions: RAW264.7, 24 h
[3] = tested on: RAW264.7; experiment: Cytotoxicity against mouse RAW264.7 cells by MTT assay; format: cell-based

| SMILES | inhibition at 80 µM [1] | IC50 [2] | Activity [3] |
| --- | --- | --- | --- |
| COC(=O)[C@]12C(=O)[C@@H](C)O[C@@H]3OC(=O)[C@](C)(C[C@H]4[C@]5(CO5)C5=CC(=O)OC(C)(C)[C@]56O[C@@H]6C[C@@]41C)[C@@H]32 | < 50% |  |  |
| COC(=O)[C@]12C[C@@](C)(O)C(=O)[C@](C)(C[C@H]3C(C)=C4CC(=O)OC(C)(C)C4=CC[C@@]31C)[C@]21CO1 | < 50% |  |  |
| COc1ccc2c(c1)c(CC(=O)O)c(C)n2C(=O)c1ccc(Cl)cc1 [INDOMETHACIN] |  | 33.6 µM |  |
| C=C1[C@@]2(C)C[C@H]3C(C)=C4CC(=O)OC(C)(C)C4=CC[C@]3(C)[C@]1(C(=O)OC)C(=O)[C@@](C)(O)C2=O [BERKELEYDIONE] | < 50% |  |  |
| C[C@H]1O[C@@H]2OC(=O)[C@]3(C)C[C@@H]4[C@@]5(C)C(=C1O[C@H]5C=C1C(=CC(=O)OC1(C)C)[C@@]41CO1)[C@]23O |  | 24 µM | Non-Toxic |
| C[C@H]1O[C@@H]2OC(=O)[C@]3(C)C[C@@H]4[C@@]5(C)C(=C1O[C@H]5C=C1C(=CC(=O)OC1(C)C)[C@@]41CO1)[C@H]23 | < 50% |  |  |
| C[C@H]1OC(=O)[C@@]23[C@@H]4[C@H]5OC(=O)[C@]4(C)C[C@@H]4[C@]2(C)[C@H](C=C2C(=CC(=O)OC2(C)C)[C@@]42CO2)O[C@@]13O5 | < 50% |  |  |
| COC(=O)[C@]12C(=O)[C@@H](C)O[C@@H]3OC(=O)[C@](C)(C[C@@H]4[C@]1(C)CC=C1C(=CC(=O)OC1(C)C)[C@@]4(C)O)[C@@H]32 |  | 78.2 µM | Non-Toxic |
| C[C@@H]1O[C@H]2OC(=O)[C@@]3(C)C[C@H]4[C@@](C)(C(=O)C=C5C(=CC(=O)OC5(C)C)[C@]45CO5)[C@@H](C1=O)[C@@]23O |  | 12.7 µM | Non-Toxic |
| COC(=O)[C@]12C(=O)[C@H](C)O[C@@H]3OC(=O)[C@](C)(C[C@H]4[C@]5(CO5)C5=CC(=O)OC(C)(C)C5=CC[C@@]41C)[C@@H]32 [BERKELEYACETAL B] | < 50% |  |  |
| C=C1[C@@]2(C)C[C@@H]3[C@](C)(CC=C4C(C)(C)OC(=O)CC[C@]43C)[C@]1(C(=O)OC)C(=O)[C@@](C)(O)C2=O [BERKELEYONE B] | < 50% |  |  |
| COC(=O)[C@]1(C)O[C@H]2OC(=O)[C@@H]3[C@H]2[C@@](C)(C[C@H]2C(C)=C4CC(=O)OC(C)(C)C4=CC[C@]32C)C1=O | < 50% |  |  |
| COC(=O)[C@]12C(=O)[C@@H](C)O[C@@H]3OC(=O)[C@](C)(C[C@H]4C(C)=C5CC(=O)OC(C)(C)C5=CC[C@@]41C)[C@@H]32 | < 50% |  |  |
| C[C@@H]1O[C@@H]2OC(=O)[C@]3(C)C[C@@H]4[C@](C)(C(=O)C=C5C(=CC(=O)OC5(C)C)[C@@]45CO5)[C@H](C1=O)[C@H]23 [BERKELEYACETAL C] |  | 4.3 µM | Non-Toxic |

Reference: ChEMBL document CHEMBL4130459, “3,5-Dimethylorsellinic Acid Derived Meroterpenoids from Penicillium chrysogenum MT-12, an Endophytic Fungus Isolated from Huperzia serrata” (J Nat Prod, 2017)
